What follows are compounds tested against T1, Human Factor XIIa (Homo sapiens, UniProt P00748) (assay: Determination of FXIIa inhibition (in vitro IC50 assay, fluorogenic substrate H-DPro-Phe-Arg-AFC)). Conditions: human Factor XIIa; fluorogenic substrate H-DPro-Phe-Arg-AFC at Km concentration; 5 min, 25 °C; class symbols H1/H2 for % inhibition at top concentration.
T1 construct: purchased Enzyme Research Laboratories
T1 sequence (P00748 373-615 limits assumed): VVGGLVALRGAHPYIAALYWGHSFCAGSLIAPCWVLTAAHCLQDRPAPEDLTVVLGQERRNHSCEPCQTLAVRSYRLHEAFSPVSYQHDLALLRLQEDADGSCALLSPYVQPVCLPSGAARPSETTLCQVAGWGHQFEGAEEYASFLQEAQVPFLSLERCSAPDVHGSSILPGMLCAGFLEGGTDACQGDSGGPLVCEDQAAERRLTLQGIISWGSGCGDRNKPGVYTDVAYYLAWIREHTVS
T1 sequence (P00748 20-372 partner limits assumed): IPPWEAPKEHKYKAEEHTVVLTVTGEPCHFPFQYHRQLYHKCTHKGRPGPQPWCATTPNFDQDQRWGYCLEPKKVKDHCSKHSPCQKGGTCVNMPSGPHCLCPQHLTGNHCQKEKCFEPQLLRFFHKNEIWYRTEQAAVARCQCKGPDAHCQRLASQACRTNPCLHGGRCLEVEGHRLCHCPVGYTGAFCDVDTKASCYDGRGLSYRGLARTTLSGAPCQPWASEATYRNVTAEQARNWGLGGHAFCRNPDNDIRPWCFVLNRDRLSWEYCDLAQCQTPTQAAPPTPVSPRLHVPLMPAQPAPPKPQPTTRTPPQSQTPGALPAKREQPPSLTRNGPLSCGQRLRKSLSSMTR
Assay type: biochemical
How it was run: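 Human FXIIa incubated at 25 °C with compound and H-DPro-Phe-Arg-AFC at its Km concentration. Linear fluorescence increase monitored over 5 min, expressed as % of uninhibited activity; IC50 is concentration giving 50% inhibition.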

Row | SMILES | Human FXIIa inhibition (compounds that did not achieve 50% inhibition)
1 | Cc1cc(OCC23CN(C(=O)NC4(c5ccccc5)CC4)C(CNc4cccnc4F)(C2)C3)cc(=O)n1C [Example 67, 4-(((1,6-dimethyl-2-oxo-1,2-dihydropyridin-4-yl)oxy)methyl)-1-(((2-fluoropyridin-3-yl)amino)methyl)-N-(1-phenylcyclopropyl)-2-azabicyclo[2.1.1]hexane-2-carboxamide] | H2 (>20% inhibition @ 100 μM)
2 | Cc1cc(OCC23CN(C(=O)NC4(c5ccccc5)CC4)C(CNc4ccccc4C#N)(C2)C3)cc(=O)n1C [Example 68, 1-(((2-cyanophenyl)amino)methyl)-4-(((1,6-dimethyl-2-oxo-1,2-dihydropyridin-4-yl)oxy)methyl)-N-(1-phenylcyclopropyl)-2-azabicyclo[2.1.1]hexane-2-carboxamide] | H1 (>20% inhibition @ 40 μM)

Same assay, conditions: human Factor XIIa; fluorogenic substrate H-DPro-Phe-Arg-AFC at Km concentration; 5 min, 25 °C; class symbols; read-out: Human FXIIa IC50

Row | SMILES | IC50
3 | Cc1cc(OCC23CN(C(=O)Nc4ccc5c(c4)CCC5)C(CNc4cccc5c(N)nccc45)(C2)C3)cc(=O)n1C [Example 65, 1-(((1-Aminoisoquinolin-5-yl)amino)methyl)-N-(2,3-dihydro-1H-inden-5-yl)-4-(((1,6-dimethyl-2-oxo-1,2-dihydropyridin-4-yl)oxy)methyl)-2-azabicyclo[2.1.1]hexane-2-carboxamide] | 1 to 10 nM
4 | Cn1ccc(OCC23CN(C(=O)NC(C)(C)c4ccccc4)C(CNc4cccc5c(N)nccc45)(C2)C3)cc1=O [Example 66, 1-(((1-Aminoisoquinolin-5-yl)amino)methyl)-4-(((1-methyl-2-oxo-1,2-dihydropyridin-4-yl)oxy)methyl)-N-(2-phenylpropan-2-yl)-2-azabicyclo[2.1.1]hexane-2-carboxamide] | 1 to 10 nM
5 | Cn1ccc(OCC23CN(C(=O)NC4(c5ccccc5)COC4)C(CNc4cccc5c(N)nccc45)(C2)C3)cc1=O [Example 69, 1-(((1-aminoisoquinolin-5-yl)amino)methyl)-4-(((1-methyl-2-oxo-1,2-dihydropyridin-4-yl)oxy)methyl)-N-(3-phenyloxetan-3-yl)-2-azabicyclo [2.1.1]hexane-2-carboxamide] | 1 to 10 nM
6 | Cc1cc(OCC23CN(C(=O)N4CCC(c5ccccc5)CC4)C(CNc4cccc5c(N)nccc45)(C2)C3)cc(=O)n1C [Example 70, 4-((1-(((1-aminoisoquinolin-5-yl)amino)methyl)-2-(4-phenylpiperidine-1-carbonyl)-2-azabicyclo[2.1.1]hexan-4-yl)methoxy)-1,6-dimethylpyridin-2(1H)-one] | 10 to 100 nM
7 | Cc1cc(OCC23CN(C(=O)NC4(c5ccccc5)CC4)C(CNc4cccnc4O)(C2)C3)cc(=O)n1C [Example 71, 4-(((1,6-Dimethyl-2-oxo-1,2-dihydropyridin-4-yl)oxy)methyl)-1-(((2-hydroxypyridin-3-yl)amino)methyl)-N-(1-phenylcyclopropyl)-2-azabicyclo[2.1.1]hexane-2-carboxamide] | 40000 to 100000 nM
8 | Cc1cc(OCC23CN(C(=O)N4CC(C5CCOCC5)C4)C(CNc4cccc5c(N)nccc45)(C2)C3)cc(=O)n1C [Example 72, 4-((1-(((1-aminoisoquinolin-5-yl)amino)methyl)-2-(3-(tetrahydro-2H-pyran-4-yl)azetidine-1-carbonyl)-2-azabicyclo[2.1.1]hexan-4-yl)methoxy)-1,6-dimethylpyridin-2(1H)-one] | 10 to 100 nM
9 | COCCOCCNC(=O)N1CC2(COc3ccn(C)c(=O)c3)CC1(CNc1cccc3c(N)nccc13)C2 [Example 73, 1-(((1-aminoisoquinolin-5-yl)amino)methyl)-N-(2-(2-methoxyethoxy)ethyl)-4-(((1-methyl-2-oxo-1,2-dihydropyridin-4-yl)oxy)methyl)-2-azabicyclo[2.1.1]hexane-2-carboxamide] | 10 to 100 nM
10 | Cn1ccc(OCC23CN(C(=O)NC4CCC(S(=O)(=O)C5CCCCC5)CC4)C(CNc4cccc5c(N)nccc45)(C2)C3)cc1=O (stereo not shown) [Example 74, 1-(((1-aminoisoquinolin-5-yl)amino)methyl)-N-(4-(cyclohexylsulfonyl)cyclohexyl)-4-(((1-methyl-2-oxo-1,2-dihydropyridin-4-yl)oxy)methyl)-2-azabicyclo[2.1.1]hexane-2-carboxamide] | 10 to 100 nM
11 | Cn1ccc(OCC23CN(C(=O)NC4CC5(CCC5)C4)C(CNc4cccc5c(N)nccc45)(C2)C3)cc1=O [Example 75, 1-(((1-aminoisoquinolin-5-yl)amino)methyl)-4-(((1-methyl-2-oxo-1,2-dihydropyridin-4-yl)oxy)methyl)-N-(spiro[3.3]heptan-2-yl)-2-azabicyclo[2.1.1]hexane-2-carboxamide] | 10 to 100 nM
12 | Cn1ccc(OCC23CN(C(=O)NCC4(C)COC4)C(CNc4cccc5c(N)nccc45)(C2)C3)cc1=O [Example 76, 1-(((1-aminoisoquinolin-5-yl)amino)methyl)-4-(((1-methyl-2-oxo-1,2-dihydropyridin-4-yl)oxy)methyl)-N-((3-methyloxetan-3-yl)methyl)-2-azabicyclo[2.1.1]hexane-2-carboxamide] | 10 to 100 nM
13 | Cn1ccc(OCC23CN(C(=O)NCC4CCOCC4)C(CNc4cccc5c(N)nccc45)(C2)C3)cc1=O [Example 77, 1-(((1-aminoisoquinolin-5-yl)amino)methyl)-4-(((1-methyl-2-oxo-1,2-dihydropyridin-4-yl)oxy)methyl)-N-((tetrahydro-2H-pyran-4-yl)methyl)-2-azabicyclo[2.1.1]hexane-2-carboxamide] | 10 to 100 nM
14 | Cn1ccc(OCC23CN(C(=O)NC4(C)CCOCC4)C(CNc4cccc5c(N)nccc45)(C2)C3)cc1=O [Example 78, 1-(((1-aminoisoquinolin-5-yl)amino)methyl)-4-(((1-methyl-2-oxo-1,2-dihydropyridin-4-yl)oxy)methyl)-N-(4-methyltetrahydro-2H-pyran-4-yl)-2-azabicyclo[2.1.1]hexane-2-carboxamide] | 10 to 100 nM
15 | Cn1ccc(OCC23CN(C(=O)NC4(C)COC4)C(CNc4cccc5c(N)nccc45)(C2)C3)cc1=O [Example 79, 1-(((1-aminoisoquinolin-5-yl)amino)methyl)-4-(((1-methyl-2-oxo-1,2-dihydropyridin-4-yl)oxy)methyl)-N-(3-methyloxetan-3-yl)-2-azabicyclo[2.1.1]hexane-2-carboxamide] | 10 to 100 nM
16 | Cn1ccc(OCC23CN(C(=O)NC4C(C)(C)C4(C)C)C(CNc4cccc5c(N)nccc45)(C2)C3)cc1=O [Example 80, 1-(((1-aminoisoquinolin-5-yl)amino)methyl)-4-(((1-methyl-2-oxo-1,2-dihydropyridin-4-yl)oxy)methyl)-N-(2,2,3,3-tetramethylcyclopropyl)-2-azabicyclo [2.1.1]hexane-2-carboxamide] | 10 to 100 nM
17 | Cn1ccc(OCC23CN(C(=O)NCCC4CCC4)C(CNc4cccc5c(N)nccc45)(C2)C3)cc1=O [Example 81, 1-(((1-aminoisoquinolin-5-yl)amino)methyl)-N-(2-cyclobutylethyl)-4-(((1-methyl-2-oxo-1,2-dihydropyridin-4-yl)oxy)methyl)-2-azabicyclo[2.1.1]hexane-2-carboxamide] | 10 to 100 nM
18 | Cn1ccc(OCC23CN(C(=O)NCCCOCc4ccccc4)C(CNc4cccc5c(N)nccc45)(C2)C3)cc1=O [Example 82, 1-(((1-aminoisoquinolin-5-yl)amino)methyl)-N-(3-(benzyloxy)propyl)-4-(((1-methyl-2-oxo-1,2-dihydropyridin-4-yl)oxy)methyl)-2-azabicyclo[2.1.1]hexane-2-carboxamide] | 10 to 100 nM
19 | Cc1cc(OCC23CN(C(=O)N4CCC5(CCOCC5)C4)C(CNc4cccc5c(N)nccc45)(C2)C3)cc(=O)n1C [Example 83, 4-((1-(((1-aminoisoquinolin-5-yl)amino)methyl)-2-(8-oxa-2-azaspiro[4.5]decane-2-carbonyl)-2-azabicyclo[2.1.1]hexan-4-yl)methoxy)-1,6-dimethylpyridin-2(1H)-one] | 10 to 100 nM
20 | Cc1cc(OCC23CN(C(=O)N4CCCC5(CC5)C4)C(CNc4cccc5c(N)nccc45)(C2)C3)cc(=O)n1C [Example 84, 4-((1-(((1-aminoisoquinolin-5-yl)amino)methyl)-2-(5-azaspiro[2.5]octane-5-carbonyl)-2-azabicyclo[2.1.1]hexan-4-yl)methoxy)-1,6-dimethylpyridin-2(1H)-one] | 10 to 100 nM
21 | Cc1cc(OCC23CN(C(=O)N4CCC5(CCCC5)C4)C(CNc4cccc5c(N)nccc45)(C2)C3)cc(=O)n1C [Example 85, 4-((1-(((1-aminoisoquinolin-5-yl)amino)methyl)-2-(2-azaspiro[4.4]nonane-2-carbonyl)-2-azabicyclo[2.1.1]hexan-4-yl)methoxy)-1,6-dimethylpyridin-2(1H)-one] | 10 to 100 nM
22 | COc1cccc(C2CCN(C(=O)N3CC4(COc5cc(C)n(C)c(=O)c5)CC3(CNc3cccc5c(N)nccc35)C4)C2)c1 (stereo not shown) [Example 86, 4-((1-(((1-aminoisoquinolin-5-yl)amino)methyl)-2-(3-(3-methoxyphenyl)pyrrolidine-1-carbonyl)-2-azabicyclo[2.1.1]hexan-4-yl)methoxy)-1,6-dimethylpyridin-2(1H)-one] | 10 to 100 nM

— US20260347347A1, “2-AZA-AND 2-OXABICYCLO[2.1.1]HEXANE DERIVATIVES AS FACTOR XIIA ENZYME INHIBITORS” (KALVISTA PHARMACEUTICALS LIMITED, priority 2022, published 2026)
